The values that follow come from patent US7541367B2, “3-benzoimidazolyl-pyrazolopyridines useful in treating kinase disorders” (Janssen Pharmaceutica, N.V., priority 2005, dated 2009).

Experiment [1] concerns the target T1, CDK1 (Homo sapiens, UniProt P06493).
T1 construct: purchased New England Biolabs, Beverly, Mass; 6020; host or cells: insect cells
As to the kind of experiment: CDK-1 kinase screening assay (33P-ATP FlashPlate). To be noted: human CDK1 with cyclin B; 10 μM ATP; 1 hr at 30° C. In kind it is biochemical.

In experiment [2] the target is T2, VEGF-R2 (Rattus norvegicus, UniProt O08775).
T2 construct: polyhistidine (N)
Put plainly: VEGF-R2 kinase screening assay (33P-ATP FlashPlate).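 Note: Read-out is ³³P incorporation from ³³P-γ-ATP into biotinylated peptide substrate captured on streptavidin FlashPlate, counted by scintillation, 1% DMSO final, inhibition scaled between per-plate maximum and minimum signals.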 In kind it is biochemical. To be noted: rat VEGF-R2 kinase domain; 10 μM ATP; 1 hr at 30° C.

Experiment [3] has as its target T3, HER2 (Homo sapiens, UniProt P04626).
T3 construct: GST (Glutathione-S-Transferase) (N); HIS6 (N); thrombin cleavage site (N); purchased Proqinase, Freiburg, Germany
As to the kind of experiment: HER2 kinase screening assay (33P-ATP FlashPlate).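 Note: Biotin-poly(GT) 4:1 peptide captured on streptavidin FlashPlate, 33P transfer from γ-ATP read by scintillation counting, lower incorporation means inhibition, 1% DMSO final, 100 µL reaction.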 In kind it is biochemical. Particulars: GST-HIS6 HER-2 aa 679 to 1255; 10 μM ATP; 1 hr at 30° C.

Experiment [4] addresses T4, Aurora-A (Mus musculus, UniProt P97477).
T4 construct: polyhistidine (N)
T4 sequence (P97477 1-395): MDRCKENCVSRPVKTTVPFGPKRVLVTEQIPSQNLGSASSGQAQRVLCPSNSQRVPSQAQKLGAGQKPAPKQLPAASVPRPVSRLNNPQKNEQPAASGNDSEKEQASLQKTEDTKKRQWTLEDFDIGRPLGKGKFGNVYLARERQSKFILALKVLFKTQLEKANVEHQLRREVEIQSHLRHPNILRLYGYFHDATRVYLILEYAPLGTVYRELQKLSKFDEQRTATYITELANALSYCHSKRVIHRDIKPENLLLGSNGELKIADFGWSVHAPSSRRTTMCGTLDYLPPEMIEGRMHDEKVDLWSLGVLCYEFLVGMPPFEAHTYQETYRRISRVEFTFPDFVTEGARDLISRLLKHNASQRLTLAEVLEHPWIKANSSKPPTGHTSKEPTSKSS
As to the kind of experiment: Aurora-A kinase screening assay (33P-ATP FlashPlate).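 Note: His-tagged mouse Aurora-A phosphorylating a biotinylated peptide captured on streptavidin plates, read as 33P uptake by scintillation counting, 1% DMSO, inhibition scaled between per-plate maximum and minimum signals.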 The format is biochemical. To be noted: 10 μM ATP, 1 hr at 30° C.

Experiment [5] addresses T5, RET (Homo sapiens, UniProt P07949).
T5 construct: polyhistidine (N)
T5 sequence (P07949 658-1114 limits assumed): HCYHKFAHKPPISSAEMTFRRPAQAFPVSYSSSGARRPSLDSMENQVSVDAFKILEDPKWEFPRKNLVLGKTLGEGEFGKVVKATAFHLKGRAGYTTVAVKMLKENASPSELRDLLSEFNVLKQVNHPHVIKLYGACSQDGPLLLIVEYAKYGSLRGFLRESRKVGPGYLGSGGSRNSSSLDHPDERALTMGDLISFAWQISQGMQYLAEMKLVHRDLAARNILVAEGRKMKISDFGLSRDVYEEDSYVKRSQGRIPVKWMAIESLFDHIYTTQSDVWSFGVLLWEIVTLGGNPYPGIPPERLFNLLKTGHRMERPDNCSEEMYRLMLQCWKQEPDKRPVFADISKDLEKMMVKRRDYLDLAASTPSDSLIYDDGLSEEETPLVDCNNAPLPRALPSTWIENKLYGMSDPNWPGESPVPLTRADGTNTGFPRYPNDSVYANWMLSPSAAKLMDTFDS
Put plainly: RET kinase screening assay (33P-ATP FlashPlate).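 Note: biotinylated peptide substrate captured on streptavidin FlashPlate, 33P phosphate transfer read by scintillation counting, 1% DMSO, lower incorporation means inhibition, percent relative to per-plate maximum and minimum signals.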 The format is biochemical. To be noted: human RET kinase domain; 10 μM ATP; 1 hr at 30° C.

Experiment [6] deals with T6, c-Src kinase (Homo sapiens, UniProt P12931).
T6 construct: purchased Upstate Biotechnology, Lake Placid, N.Y
Put plainly: c-Src Kinase Assay. To be noted: 5 μM ATP. In kind it is biochemical. The method in brief:
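Human c-Src phosphorylated Cdc2 peptide (100 μM) […]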

The target in experiment [7] is T7, Lyn kinase (Homo sapiens, UniProt P07948).
T7 construct: purchased Upstate Biotechnology, Lake Placid, N.Y
As to the kind of experiment: Lyn Kinase Assay. The format is biochemical. Particulars: 5 μM ATP. The procedure: Test compound in 100% DMSO (0.5 μL) was added to the appropriate wells. Diluted Lyn kinase (human) (Accession Number EMBL M16038) (Upstate Biotechnology, Lake Placid, N.Y.) (diluted in a buffer consisting of 50 mM Tris at pH 7.5, 0.1 mM EGTA, Sodium Vanadate (0.1 mM), β-mercaptoethanol (0.1%) and 1 mg/mL bovine serum albumin) (2.5 μL) was added to the wells to initiate the reactions.
The reaction plates were incubated at 30° C. for 40 min. The reaction was terminated by the addition of a 3% phosphoric acid solution (5 μL). The reaction product (10 μL) was spotted onto a P30 filtermat and washed for 5 minutes in phosphoric acid (75 mM). The wash sequence was repeated two more times, followed with one final wash in methanol. The plates were then dried, sealed and read on the TopCount scintillation counter after adding 30 μL scintillation fluid.
A maximum and minimum signal for the assay was determined on each plate. The percent inhibition of a test compound was calculated according to the formula: […]
For a series of test concentrations, the IC50 was derived by graphing percent inhibition against the log of the concentrations tested for a given compound with results shown in Table 3
For compounds with multiple values, each value represents a separate assay result.

For experiment [8], the system named is HeLa cervical adenocarcinoma. Put plainly: Cell Proliferation Inhibition Assay (14C-thymidine incorporation), HeLa.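 Note: test compound in DMSO added to cells seeded in scintillating 96-well plates, DMSO-only wells as control, uptake of methyl 14C-thymidine into new DNA counted.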 In kind it is cell-based. To be noted: Homo sapiens, HeLa, HeLa cells.
In experiment [9] the test system is A375 malignant melanoma. Put plainly: Cell Proliferation Inhibition Assay (14C-thymidine incorporation), A375.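 Note: proliferation measured by radiolabelled thymidine uptake into new DNA, counted in scintillating 96-well plates, compound-treated wells compared with DMSO-only control wells.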 In kind it is cell-based. Particulars: Homo sapiens, A-375, A375 cells.
Experiment [10] deals with HCT-116 colon carcinoma. As to the kind of experiment: Cell Proliferation Inhibition Assay (14C-thymidine incorporation), HCT-116.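 Note: proliferation measured as methyl 14C-thymidine uptake into new DNA, counted in 96-well scintillating microplates, compared with DMSO-only control wells.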 To be noted: Homo sapiens, HCT-116, HCT-116 cells. In kind it is cell-based.

T3 sequence (P04626 679-1255): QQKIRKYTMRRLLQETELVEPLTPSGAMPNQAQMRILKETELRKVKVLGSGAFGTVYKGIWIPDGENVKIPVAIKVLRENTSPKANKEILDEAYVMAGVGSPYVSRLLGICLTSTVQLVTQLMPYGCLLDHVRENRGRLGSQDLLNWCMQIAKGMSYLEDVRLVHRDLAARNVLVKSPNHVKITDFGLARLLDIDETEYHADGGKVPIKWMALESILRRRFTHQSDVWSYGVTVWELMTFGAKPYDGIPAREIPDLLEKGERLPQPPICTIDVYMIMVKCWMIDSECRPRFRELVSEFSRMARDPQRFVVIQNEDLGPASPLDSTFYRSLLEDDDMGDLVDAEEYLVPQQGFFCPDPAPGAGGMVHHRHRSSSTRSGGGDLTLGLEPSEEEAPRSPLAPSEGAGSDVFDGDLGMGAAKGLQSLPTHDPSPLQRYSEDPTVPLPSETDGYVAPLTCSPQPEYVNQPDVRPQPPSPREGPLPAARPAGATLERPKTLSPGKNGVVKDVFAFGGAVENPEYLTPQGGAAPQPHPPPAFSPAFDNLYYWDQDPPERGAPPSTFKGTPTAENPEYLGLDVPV
T7 sequence (P07948 whole entry): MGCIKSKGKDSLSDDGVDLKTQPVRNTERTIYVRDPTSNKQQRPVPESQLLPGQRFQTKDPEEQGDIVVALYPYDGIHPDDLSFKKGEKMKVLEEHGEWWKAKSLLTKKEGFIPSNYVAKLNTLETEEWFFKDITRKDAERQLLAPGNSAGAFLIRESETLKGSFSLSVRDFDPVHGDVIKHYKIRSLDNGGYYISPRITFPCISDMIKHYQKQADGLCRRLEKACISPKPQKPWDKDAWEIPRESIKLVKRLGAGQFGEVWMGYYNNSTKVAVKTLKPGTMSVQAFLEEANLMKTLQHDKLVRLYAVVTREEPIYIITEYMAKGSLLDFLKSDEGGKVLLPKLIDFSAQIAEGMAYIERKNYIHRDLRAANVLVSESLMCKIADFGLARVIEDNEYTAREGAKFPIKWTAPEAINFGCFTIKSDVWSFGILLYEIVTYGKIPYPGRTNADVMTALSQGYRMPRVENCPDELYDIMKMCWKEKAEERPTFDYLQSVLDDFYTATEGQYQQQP
T6 sequence (P12931 whole entry): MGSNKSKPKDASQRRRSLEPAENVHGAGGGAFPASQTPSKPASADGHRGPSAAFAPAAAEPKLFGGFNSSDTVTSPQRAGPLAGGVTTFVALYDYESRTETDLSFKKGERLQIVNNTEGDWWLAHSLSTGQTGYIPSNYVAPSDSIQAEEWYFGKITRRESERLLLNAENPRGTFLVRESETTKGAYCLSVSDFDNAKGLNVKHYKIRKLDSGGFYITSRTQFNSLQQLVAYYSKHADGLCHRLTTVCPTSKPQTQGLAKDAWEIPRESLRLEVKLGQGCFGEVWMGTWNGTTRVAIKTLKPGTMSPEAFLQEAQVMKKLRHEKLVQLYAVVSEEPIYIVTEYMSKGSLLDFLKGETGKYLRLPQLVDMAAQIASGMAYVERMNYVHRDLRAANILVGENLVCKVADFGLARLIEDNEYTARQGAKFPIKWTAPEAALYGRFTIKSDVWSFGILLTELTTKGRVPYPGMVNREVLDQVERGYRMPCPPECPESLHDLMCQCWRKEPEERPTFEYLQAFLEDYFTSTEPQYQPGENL
T2 sequence (O08775 786-1343): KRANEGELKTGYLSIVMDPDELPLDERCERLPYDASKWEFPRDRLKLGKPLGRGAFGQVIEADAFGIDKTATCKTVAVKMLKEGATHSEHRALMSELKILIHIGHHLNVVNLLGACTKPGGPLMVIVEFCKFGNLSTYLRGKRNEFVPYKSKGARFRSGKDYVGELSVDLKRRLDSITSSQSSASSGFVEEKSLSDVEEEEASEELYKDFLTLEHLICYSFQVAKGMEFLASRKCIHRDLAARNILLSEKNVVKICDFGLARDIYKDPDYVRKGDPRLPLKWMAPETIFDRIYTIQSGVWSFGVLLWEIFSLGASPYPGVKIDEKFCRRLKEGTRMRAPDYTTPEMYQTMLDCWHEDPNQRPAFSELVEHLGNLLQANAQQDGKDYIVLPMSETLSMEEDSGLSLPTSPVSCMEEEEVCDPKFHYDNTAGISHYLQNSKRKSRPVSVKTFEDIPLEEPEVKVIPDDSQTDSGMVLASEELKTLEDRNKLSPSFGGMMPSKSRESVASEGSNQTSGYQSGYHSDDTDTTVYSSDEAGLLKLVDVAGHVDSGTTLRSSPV
T1 sequence (P06493 whole entry): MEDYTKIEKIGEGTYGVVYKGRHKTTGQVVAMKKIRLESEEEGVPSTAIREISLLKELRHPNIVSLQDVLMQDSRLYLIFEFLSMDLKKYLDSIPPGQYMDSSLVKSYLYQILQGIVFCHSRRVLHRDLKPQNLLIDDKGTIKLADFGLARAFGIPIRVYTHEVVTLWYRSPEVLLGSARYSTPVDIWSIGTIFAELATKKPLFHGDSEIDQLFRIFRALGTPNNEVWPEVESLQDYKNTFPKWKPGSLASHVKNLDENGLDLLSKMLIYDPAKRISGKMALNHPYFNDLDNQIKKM
T1 sequence (P14635 whole entry partner): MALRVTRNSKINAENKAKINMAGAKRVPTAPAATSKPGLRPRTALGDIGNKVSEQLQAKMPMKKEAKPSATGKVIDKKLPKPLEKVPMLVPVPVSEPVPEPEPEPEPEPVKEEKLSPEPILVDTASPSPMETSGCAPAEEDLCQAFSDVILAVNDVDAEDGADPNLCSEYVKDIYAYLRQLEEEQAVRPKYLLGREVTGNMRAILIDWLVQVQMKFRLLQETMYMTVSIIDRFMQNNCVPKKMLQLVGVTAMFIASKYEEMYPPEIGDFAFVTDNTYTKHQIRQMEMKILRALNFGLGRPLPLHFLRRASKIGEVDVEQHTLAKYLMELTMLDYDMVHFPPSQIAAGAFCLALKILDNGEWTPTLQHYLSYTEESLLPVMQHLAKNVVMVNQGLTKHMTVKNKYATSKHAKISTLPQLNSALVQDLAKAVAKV

Consider `CCN(CC)c1ccc(NC(=O)c2cccc3[nH]c(-c4n[nH]c5ncc(-c6cncc7ccccc67)cc45)nc23)c(C)c1` [Cpd 50, 2-(5-isoquinolin-4-yl-1H-pyrazolo[3,4-b]pyridin-3-yl)-1H-benzoimidazole-4-carboxylic acid (4-diethylamino-2-methyl-phenyl)-amide], for which the IC50 in experiment [1] is 40.6 nM; in [2], > 100000 nM; in experiment [3] it was > 100000 nM; in [4] it was 168 nM; in experiment [5] it was > 10000 nM; in [6], 1.04 nM. In addition, the IC50 in [7] turned out to be 5.21 nM; in experiment [8] it was 258 nM; in experiment [9], 242 nM; in experiment [10], 455 nM.
For `COCc1cccc2[nH]c(-c3n[nH]c4ncc(-c5cncc(C=NO)c5)cc34)nc12` [Cpd 72, 5-[3-(4-methoxymethyl-1H-benzoimidazol-2-yl)-1H-pyrazolo[3,4-b]pyridin-5-yl]-pyridine-3-carbaldehyde oxime], the IC50 in [1] was 23.6 nM; in experiment [2] it was > 100000 nM; in [3], > 100000 nM; in [4], > 10000 nM; in [5] it was > 100000 nM; in [6], 375 nM. Also, the IC50 in experiment [7] worked out at 1050 nM; in experiment [8] it was 640 nM; in experiment [9], 10.2 nM; in experiment [10] it was 29.2 nM.
For `NC1CCC(NC(=O)c2cccc3[nH]c(-c4n[nH]c5ncc(-c6cncc7ccccc67)cc45)nc23)CC1` (stereo not drawn) [Cpd 45, 2-(5-isoquinolin-4-yl-1H-pyrazolo[3,4-b]pyridin-3-yl)-1H-benzoimidazole-4-carboxylic acid (4-amino-cyclohexyl)-amide], the IC50 in experiment [1] is 34.9 nM; in [2], > 100 nM; in experiment [3] it was 31000 nM; in [4] it was 40 nM; in [5], > 100000 nM; in [6], 0.653 nM. Also, the IC50 in experiment [7] was 1.33 nM; in experiment [8], 7520 nM; in experiment [9], 28500 nM; in [10] it was > 10000 nM.
`COCc1cccc2[nH]c(-c3n[nH]c4ncc(-c5ccncc5)cc34)nc12` [Cpd 65, 3-(4-methoxymethyl-1H-benzoimidazol-2-yl)-5-pyridin-4-yl-1H-pyrazolo[3,4-b]pyridine]: the IC50 in experiment [1] is > 1000 nM; in [2], 115 nM; in [3] it was > 100000 nM; in experiment [4] it was > 1000 nM; in experiment [5], > 100000 nM; in experiment [6] it was 315 nM. Moreover, the IC50 in experiment [7] is 277 nM; in [8], 3090 nM; in experiment [9], 22.6 nM; in experiment [10], 62 nM.
On to `Cc1ccccc1NC(=O)c1cccc2[nH]c(-c3n[nH]c4ncc(-c5cncc6ccccc56)cc34)nc12` [Cpd 46, 2-(5-isoquinolin-4-yl-1H-pyrazolo[3,4-b]pyridin-3-yl)-1H-benzoimidazole-4-carboxylic acid o-tolylamide], for which the IC50 in [1] was 80.6 nM; in [2], 702 nM; in experiment [3], ~100000 nM; in [4] it was 230 nM; in experiment [5] it was ~10000 nM; in experiment [6] it was 1.4 nM. Further, the IC50 in experiment [7] was determined as 6.31 nM; in [8] it was 159 nM; in experiment [9], 194 nM; in experiment [10] it was 225 nM.
Take `COCc1cccc2[nH]c(-c3n[nH]c4ncc(-c5ccc(N6CCNCC6)nc5)cc34)nc12` [Cpd 69, 3-(4-methoxymethyl-1H-benzoimidazol-2-yl)-5-(6-piperazin-1-yl-pyridin-3-yl)-1H-pyrazolo[3,4-b]pyridine]: the IC50 in experiment [1] was > 10000 nM; in experiment [2], ~1000 nM; in experiment [3] it was > 100000 nM; in experiment [4], > 1000 nM; in experiment [5], > 100000 nM; in experiment [6], 597 nM. Moreover, the IC50 in [7] turned out to be 2890 nM; in [8], 1730 nM; in experiment [9], 18.5 nM; in experiment [10], 77 nM.
Turning to `COCc1cccc2[nH]c(-c3n[nH]c4ncc(-c5cncc(CNC6CCN(C)CC6)c5)cc34)nc12` [Cpd 80, {5-[3-(4-methoxymethyl-1H-benzoimidazol-2-yl)-1H-pyrazolo[3,4-b]pyridin-5-yl]-pyridin-3-ylmethyl}-(1-methyl-piperidin-4-yl)-amine], the IC50 in [1] is 875 nM; in [2] it was 2080 nM; in experiment [3], > 100000 nM; in experiment [4] it was > 10000 nM; in experiment [5], > 100000 nM; in experiment [6], 211 nM. Also, the IC50 in experiment [7] is 192 nM; in experiment [8], > 10000 nM; in [9] it was 397 nM; in experiment [10], 2310 nM.
For `O=C(Nc1cccnc1)c1cccc2[nH]c(-c3n[nH]c4ncc(-c5cncc6ccccc56)cc34)nc12` [Cpd 48, 2-(5-isoquinolin-4-yl-1H-pyrazolo[3,4-b]pyridin-3-yl)-1H-benzoimidazole-4-carboxylic acid pyridin-3-ylamide], the IC50 in [1] was 18.5 nM; in [2] it was ~10 nM; in experiment [3], > 100000 nM; in experiment [4], ~1000 nM; in experiment [5], > 10000 nM; in [6], 5 nM. In addition, the IC50 in [7] amounted to 23.6 nM; in experiment [8] it was 300 nM; in experiment [9], 188 nM; in [10] it was 488 nM.
For `CN1CCN(c2ccc3[nH]c(-c4n[nH]c5ncc(-c6cncc(CN7CCOCC7)c6)cc45)nc3c2)CC1` [Cpd 84, 3-[5-(4-methyl-piperazin-1-yl)-1H-benzoimidazol-2-yl]-5-(5-morpholin-4-ylmethyl-pyridin-3-yl)-1H-pyrazolo[3,4-b]pyridine], the IC50 in experiment [1] is 32.2 nM; in experiment [2], ~100 nM; in [3], 1850 nM; in [4], 87.3 nM; in [5], > 1000 nM; in experiment [6] it was 5.18 nM. Also, the concentration for half-maximal inhibition (IC50) in [7] is 9.65 nM; in [8] it was 1880 nM; in experiment [9] it was 2530 nM; in experiment [10] it was 739 nM.
